Data taken from patent US20250026778A1 (TIUMBIO CO., LTD., priority 2021, published 2025).
Like-named read-outs stand apart in the source and are kept apart here. One block for each molecule: values may come before it.

Molecular target: T1, his-galectin-3 (Homo sapiens, UniProt P17931)
T1 construct: purchased Abcam
Assay: TR-FRET assay (in vitro galectin-3 binding inhibitory activity test)
Conditions: compound at 20 μM, 60 nM his-galectin-3, 15 nM biotin-ASF
Outline: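 Compound is premixed with his-galectin-3 (60 nM final), then biotin-ASF (15 nM), Tb anti-His antibody (2 nM) and streptavidin-d2 (20 nM) are added. After at least 3.5 hours at RT in HEPES/NaCl buffer with Tween 20 and BSA, TR-FRET is read at 615/665 nm. DMSO serves as the uninhibited control, ASF omission as background.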

[1] = Table 1, read-out: % Inhibitory activity (at 20 μM)

T1 sequence (P17931 whole entry): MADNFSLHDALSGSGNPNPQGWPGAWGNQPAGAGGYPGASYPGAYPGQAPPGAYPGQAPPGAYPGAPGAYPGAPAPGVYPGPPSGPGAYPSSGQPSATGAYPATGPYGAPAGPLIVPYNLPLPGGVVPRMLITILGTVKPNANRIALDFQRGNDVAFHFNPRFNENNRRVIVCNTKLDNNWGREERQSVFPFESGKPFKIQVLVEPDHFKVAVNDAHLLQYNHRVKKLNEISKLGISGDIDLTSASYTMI

SMILES: O=C(N[C@@H]1CCO[C@]12O[C@H](CO)[C@H](O)[C@H](n1cc(-c3cc(F)c(F)c(F)c3)nn1)[C@H]2O)c1cc2ccccc2s1 [Compound A124, N-((4R,5S,7R,8R,9S,10R)-8,10-dihydroxy-7-(hydroxymethyl)-9-(4-(3,4,5-trifluorophenyl)-1H-1,2,3-triazol-1-yl)-1,6-dioxaspiro[4.5]decan-4-yl)benzo[b]thiophene-2-carboxamide]
inhibition at 20 µM [1]: 50 to 75%

SMILES: OC[C@H]1O[C@]2(OCC[C@H]2NCc2ccccc2O)[C@H](O)[C@@H](n2cc(-c3cc(F)c(F)c(F)c3)nn2)[C@H]1O [Compound A125, (4R,5S,7R,8R,9S,10R)-4-((2-hydroxybenzyl)amino)-7-(hydroxymethyl)-9-(4-(3,4,5-trifluorophenyl)-1H-1,2,3-triazol-1-yl)-1,6-dioxaspiro[4.5]decane-8,10-diol]
inhibition at 20 µM [1]: < 25%

SMILES: OC[C@H]1O[C@]2(OCC[C@H]2NCc2cc(Cl)ccc2O)[C@H](O)[C@@H](n2cc(-c3cc(F)c(F)c(F)c3)nn2)[C@H]1O [Compound A126, (4R,5S,7R,8R,9S,10R)-4-((5-chloro-2-hydroxybenzyl)amino)-7-(hydroxymethyl)-9-(4-(3,4,5-trifluorophenyl)-1H-1,2,3-triazol-1-yl)-1,6-dioxaspiro[4.5]decane-8,10-diol]
inhibition at 20 µM [1]: 25 to 50%

SMILES: OC[C@H]1O[C@]2(OCC[C@H]2NCc2cccc(Cl)c2O)[C@H](O)[C@@H](n2cc(-c3cc(F)c(F)c(F)c3)nn2)[C@H]1O [Compound A127, (4R,5S,7R,8R,9S,10R)-4-((3-chloro-2-hydroxybenzyl)amino)-7-(hydroxymethyl)-9-(4-(3,4,5-trifluorophenyl)-1H-1,2,3-triazol-1-yl)-1,6-dioxaspiro[4.5]decane-8,10-diol]
inhibition at 20 µM [1]: 50 to 75%

SMILES: OC[C@H]1O[C@]2(OCC[C@H]2NCc2ccc(Cl)o2)[C@H](O)[C@@H](n2cc(-c3cc(F)c(F)c(F)c3)nn2)[C@H]1O [Compound A128, (4R,5S,7R,8R,9S,10R)-4-(((5-chlorofuran-2-yl)methyl)amino)-7-(hydroxymethyl)-9-(4-(3,4,5-trifluorophenyl)-1H-1,2,3-triazol-1-yl)-1,6-dioxaspiro[4.5]decane-8,10-diol]
inhibition at 20 µM [1]: 50 to 75%

SMILES: O=C(N[C@@H]1CCO[C@]12O[C@H](CO)[C@H](O)[C@H](n1cc(-c3cc(F)c(F)c(F)c3)nn1)[C@H]2O)c1ccc2ccccc2c1 [Compound A129, N-((4R,5S,7R,8R,9S,10R)-8,10-dihydroxy-7-(hydroxymethyl)-9-(4-(3,4,5-trifluorophenyl)-1H-1,2,3-triazol-1-yl)-1,6-dioxaspiro[4.5]decan-4-yl)-2-naphthamide]
inhibition at 20 µM [1]: 50 to 75%

SMILES: O=C(N[C@@H]1CCO[C@]12O[C@H](CO)[C@H](O)[C@H](n1cc(-c3cc(F)c(F)c(F)c3)nn1)[C@H]2O)c1cccc(Oc2ccccc2)c1 [Compound A130, N-((4R,5S,7R,8R,9S,10R)-8,10-dihydroxy-7-(hydroxymethyl)-9-(4-(3,4,5-trifluorophenyl)-1H-1,2,3-triazol-1-yl)-1,6-dioxaspiro[4.5]decan-4-yl)-3-phenoxybenzamide]
inhibition at 20 µM [1]: 50 to 75%
inhibition at 20 µM (Table 3, found values, read-out: % Inhibitory activity (at 20 μM)): 56.6%

SMILES: O=C(N[C@@H]1CCO[C@]12O[C@H](CO)[C@H](O)[C@H](n1cc(-c3cc(F)c(F)c(F)c3)nn1)[C@H]2O)c1ccc(-c2ccccc2)cc1 [Compound A131, N-((4R,5S,7R,8R,9S,10R)-8,10-dihydroxy-7-(hydroxymethyl)-9-(4-(3,4,5-trifluorophenyl)-1H-1,2,3-triazol-1-yl)-1,6-dioxaspiro[4.5]decan-4-yl)-[1.1′ biphenyl]-4-carboxamide]
inhibition at 20 µM [1]: < 25%

SMILES: COc1cccc(CN[C@@H]2CCO[C@]23O[C@H](CO)[C@H](O)[C@H](n2cc(-c4cc(F)c(F)c(F)c4)nn2)[C@H]3O)c1O [Compound A132, (4R,5S,7R,8R,9S,10R)-4-((2,3-hydroxy-3-methoxybenzyl)amino)-7-(hydroxymethyl)-9-(4-(3,4,5-trifluorophenyl)-1H-1,2,3-triazol-1-yl)-1,6-dioxaspiro[4.5]decane-8,10-diol]
inhibition at 20 µM [1]: 25 to 50%

SMILES: O=C(N[C@@H]1CCO[C@]12O[C@H](CO)[C@H](O)[C@H](n1cc(-c3cc(F)c(F)c(F)c3)nn1)[C@H]2O)c1cccc2ccccc12 [Compound A133, N-((4R,5S,7R,8R,9S,10R)-8,10-dihydroxy-7-(hydroxymethyl)-9-(4-(3,4,5-trifluorophenyl)-1H-1,2,3-triazol-1-yl)-1,6-dioxaspiro[4.5]decan-4-yl)-1-naphthamide]
inhibition at 20 µM [1]: > 75%

SMILES: O=C(Cc1cccc(Cl)c1)N1CCC[C@]2(C1)O[C@H](CO)[C@H](O)[C@H](n1cc(-c3cc(F)c(F)c(F)c3)nn1)[C@H]2O [Compound A139, 2-(3-chlorophenyl)-1-((2R,3R,4S,5R,6R)-3,5-dihydroxy-2-(hydroxymethyl)-4-(4-(3,4,5-trifluorophenyl)-1H-1,2,3-triazol-1-yl)-1-oxa-8-azaspiro[5.5]undecan-8-yl)ethanone]
inhibition at 20 µM (read-out: % Inhibitory activity (at 20 μM), Table 1): < 25%

The next lines start with the values.

inhibition at 20 µM [1]: > 75%
SMILES: O=C(N[C@@H]1CCO[C@]12O[C@H](CO)[C@H](O)[C@H](n1cc(-c3cc(F)c(F)c(F)c3)nn1)[C@H]2O)c1cccc(-c2ccccc2)c1 [Compound A134, N-((4R,5S,7R,8R,9S,10R)-8,10-dihydroxy-7-(hydroxymethyl)-9-(4-(3,4,5-trifluorophenyl)-1H-1,2,3-triazol-1-yl)-1,6-dioxaspiro[4.5]decan-4-yl)-[1.1′ biphenyl]-3-carboxamide]

inhibition at 20 µM [1]: < 25%
SMILES: O=C(Cc1ccc(-c2ccccc2)cc1)N[C@@H]1CCO[C@]12O[C@H](CO)[C@H](O)[C@H](n1cc(-c3cc(F)c(F)c(F)c3)nn1)[C@H]2O [Compound A135, 2-([1,1′-biphenyl]-4-yl)-N-((4R,5S,7R,8R,9S,10R)-8,10-dihydroxy-7-(hydroxymethyl)-9-(4-(3,4,5-trifluorophenyl)-1H-1,2,3-triazol-1-yl)-1,6-dioxaspiro[4.5]decan-4-yl)acetamide]

inhibition at 20 µM [1]: > 75%
SMILES: O=C(Cc1cccc(C(F)(F)F)c1)N[C@@H]1CCO[C@]12O[C@H](CO)[C@H](O)[C@H](n1cc(-c3cc(F)c(F)c(F)c3)nn1)[C@H]2O [Compound A136, N-((4R,5S,7R,8R,9S,10R)-8,10-dihydroxy-7-(hydroxymethyl)-9-(4-(3,4,5-trifluorophenyl)-1H-1,2,3-triazol-1-yl)-1,6-dioxaspiro[4.5]decan-4-yl)-2-(3-(trifluoromethyl)phenyl)acetamide]

inhibition at 20 µM [1]: 50 to 75%
SMILES: CC(C(=O)N[C@@H]1CCO[C@]12O[C@H](CO)[C@H](O)[C@H](n1cc(-c3cc(F)c(F)c(F)c3)nn1)[C@H]2O)c1ccccc1 (stereo partly drawn) [Compound A137, N-((4R,5S,7R,8R,9S,10R)-8,10-dihydroxy-7-(hydroxymethyl)-9-(4-(3,4,5-trifluorophenyl)-1H-1,2,3-triazol-1-yl)-1,6-dioxaspiro[4.5]decan-4-yl)-2-phenylpropanamide]

inhibition at 20 µM [1]: < 25%
SMILES: O=C(c1ccccc1)N1CCC[C@]2(C1)O[C@H](CO)[C@H](O)[C@H](n1cc(-c3cc(F)c(F)c(F)c3)nn1)[C@H]2O [Compound A138, ((2R,3R,4S,5R,6R)-3,5-dihydroxy-2-(hydroxymethyl)-4-(4-(3,4,5-trifluorophenyl)-1H-1,2,3-triazol-1-yl)-1-oxa-8-azaspiro[5.5]undecan-8-yl)(phenyl)methanone]
